Measurements taken from ChEMBL document CHEMBL5154926, “Discovery of a Novel Series of Imipridone Compounds as Homo sapiens Caseinolytic Protease P Agonists with Potent Antitumor Activities In Vitro and In Vivo” (J Med Chem, 2022).
Values after ≈ are worked out from the molar mass of the structure shown. Active and inactive are the calls of the source. No cut-off for these calls is given here.

Legend:
[1] = target: T1, ATP-dependent Clp protease proteolytic subunit, mitochondrial (Homo sapiens, UniProt Q16740); experiment: Agonist activity at human CLpP (57 to 277 amino acids) expressed in Escherichia coli using fluorogenic peptide AC-WLA-AMC as substrate incubated for 10 mins by fluorescence based assay
HCT-116 [2] = experiment: cells; conditions: Homo sapiens, HCT-116, 48 h
Description: Antiproliferative activity against human HCT-116 cells incubated for 48 hrs by CCK-8 assay

[3] = Cmax in Sprague-Dawley rat plasma at 5 mg/kg, iv after 0.083 to 24 hrs by LC-MS analysis; type: ADME, organism-based; set-up: dose 5 mg/kg, time 0.083-24 hrs, route iv
[4] = Cmax in Sprague-Dawley rat plasma at 15 mg/kg, po after 0.25 to 24 hrs by LC-MS analysis; type: ADME, organism-based; set-up: time lower 0.25 hrs, dose 15 mg/kg, time upper 24 hrs, route po
[5] = Tmax in Sprague-Dawley rat plasma at 15 mg/kg, po after 0.25 to 24 hrs by LC-MS analysis; type: ADME, organism-based; conditions: time 0.25-24 hrs
[6] = Terminal half life in Sprague-Dawley rat plasma at 5 mg/kg, iv after 0.083 to 24 hrs by LC-MS analysis; type: ADME, organism-based; conditions: time 0.083-24 hrs, read-out: beta t1/2 (converted)
[7] = Terminal half life in Sprague-Dawley rat plasma at 15 mg/kg, po after 0.25 to 24 hrs by LC-MS analysis; type: ADME, organism-based; conditions: time 0.25-24 hrs, read-out: beta t1/2 (converted)
[8] = Clearance in Sprague-Dawley rat plasma at 5 mg/kg, iv after 0.083 to 24 hrs by LC-MS analysis; type: ADME, organism-based; conditions: time 0.083-24 hrs
[9] = MRT (0 to 24 hrs) in Sprague-Dawley rat plasma at 5 mg/kg, iv after 0.083 to 24 hrs by LC-MS analysis; type: ADME, organism-based; conditions: time 0.083-24 hrs
[10] = MRT (0 to 24 hrs) in Sprague-Dawley rat plasma at 15 mg/kg, po after 0.25 to 24 hrs by LC-MS analysis; type: ADME, organism-based; conditions: time 0.25-24 hrs
[11] = Oral bioavailability in Sprague-Dawley rat plasma at 15 mg/kg after 0.25 to 24 hrs by LC-MS analysis; type: ADME, organism-based; conditions: time 0.25-24 hrs
in vivo [12] = conditions: Sprague-Dawley, rat, in vivo, iv, 5 mg/kg
in vivo [13] = conditions: Sprague-Dawley, rat, in vivo, po, 15 mg/kg
HT-29 = experiment: cells; conditions: Homo sapiens, HT-29, 48 h
Description: Antiproliferative activity against human HT-29 cells incubated for 48 hrs by CCK-8 assay

SW-620 = experiment: cells; conditions: Homo sapiens, SW-620, 48 h
Description: Antiproliferative activity against human SW-620 cells incubated for 48 hrs by CCK-8 assay

DLD-1 = experiment: cells; conditions: Homo sapiens, DLD-1, 48 h
Description: Antiproliferative activity against human DLD-1 cells incubated for 48 hrs by CCK-8 assay

HCT-15 = experiment: cells; conditions: Homo sapiens, HCT-15, 48 h
Description: Antiproliferative activity against human HCT-15 cells incubated for 48 hrs by CCK-8 assay

SW480 = experiment: cells; conditions: Homo sapiens, SW480, 48 h
Description: Antiproliferative activity against human SW480 cells incubated for 48 hrs by CCK-8 assay

[14] = 1-octanol/water partition coefficient, log P of the compound agitated for 4 hrs measured by shake flask assay based HPLC analysis; type: physicochemical
[15] = Aqueous solubility of the compound agitated for 24 hrs by HPLC analysis; type: physicochemical; conditions: buffer
[16] = Stability in rat liver microsomes assessed as half life at 1.5 uM measured upto 90 mins in presence of NADPH by LC/MS analysis; type: ADME, Microsome; conditions: 1.5 h
[17] = Stability in human liver microsomes assessed as intrinsic clearance at 1.5 uM measured upto 90 mins in presence of NADPH by LC/MS analysis; type: ADME, Microsome; conditions: read-out: CLH
[18] = Stability in human liver microsomes assessed as half life at 1.5 uM measured upto 90 mins in presence of NADPH by LC/MS analysis; type: ADME, Microsome; conditions: microsomes, 1.5 h, 1.5 µM
[19] = target: T1, ATP-dependent Clp protease proteolytic subunit, mitochondrial; conditions: filed as agonist, dose 100.0 µM, time 30.0 min
[20] = target: T1, ATP-dependent Clp protease proteolytic subunit, mitochondrial; conditions: filed as agonist
Description: Binding affinity to human CLpP assessed as change in entropy by ITC method

[21] = target: T1, ATP-dependent Clp protease proteolytic subunit, mitochondrial; conditions: filed as agonist; remark: listed apart in the source
Description: Binding affinity to human CLpP assessed as change in enthalpy by ITC method

Homo sapiens [22] = species: Homo sapiens; conditions: filed as agonist
Description: Binding affinity to human CLpP Y138F/Q107A double mutant assessed as change in enthalpy by ITC method

Homo sapiens [23] = species: Homo sapiens; conditions: filed as agonist; remark: listed apart in the source
Description: Binding affinity to human CLpP Y138F/Q107A double mutant assessed as change in entropy by ITC method

HCT-116 [24] = conditions: Homo sapiens, dose 12.5-50 nM, time 14.0 day

T1 sequence (Q16740 whole entry, the tested form may be a part): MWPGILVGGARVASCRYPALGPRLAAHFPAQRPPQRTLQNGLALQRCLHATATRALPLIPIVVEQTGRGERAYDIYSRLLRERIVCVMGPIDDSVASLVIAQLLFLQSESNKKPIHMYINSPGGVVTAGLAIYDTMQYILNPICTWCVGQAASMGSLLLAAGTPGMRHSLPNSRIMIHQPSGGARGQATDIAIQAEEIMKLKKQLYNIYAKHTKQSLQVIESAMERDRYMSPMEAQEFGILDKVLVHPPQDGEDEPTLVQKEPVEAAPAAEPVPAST

| SMILES | EC50 [1] [nM] | IC50 (HCT-116 [2]) [nM] | also measured |
| --- | --- | --- | --- |
| CN1CCn2c1nc(=O)c1c2CCN(Cc2ccccc2)C1 | > 10000 | > 10000 |  |
| Cc1ccccc1CN1CCn2c1nc(=O)c1c2CCN(CCCCc2ccccc2)C1 | > 10000 | > 10000 |  |
| Cc1ccccc1CN1C(=O)C2=C(CCN(Cc3ccccc3)C2)N2CCN=C12.Cl.Cl.O |  |  | Cmax [3]: 2770 ng/mL; Cmax [4]: 566 ng/mL; Tmax [5]: 25.2 min; half-life [6]: 54.6 min; half-life [7]: 63 min; clearance [8]: 42.7 mL/min/kg; MRT last [9]: 51.6 min; MRT last [10]: 87.6 min; bioavailability [11]: 15.2%; AUC(0-t) (in vivo [12]): 1960 ng·h/mL; AUC(0-t) (in vivo [13]): 894 ng·h/mL |
| O=c1nc2n(c3c1CN(Cc1ccccc1)CC3)CCN2Cc1cccnc1 | 1040 | > 10000 |  |
| Cc1ccccc1CN1C(=O)C2=C(CCN(Cc3ccccc3)C2)N2CCN=C12 [DORDAVIPRONE] |  |  | logP at 4 h [14]: 2.93; solubility at 24 h [15]: 200 µM (≈ 77.4 µg/mL); t1/2 [16]: 10.5 min; CLint scaled at 1.5 µM [17]: 187 mL/min/kg |
| Cc1ccccc1CN1CCn2c1nc(=O)c1c2CCN(C(=O)c2ccccc2)C1 | > 10000 | > 10000 |  |
| Cc1ccccc1CN1CCn2c1nc(=O)c1c2CCN(CC2CC2)C1 | > 10000 | > 10000 |  |
| Cc1ccccc1CN1CCn2c1nc(=O)c1c2CCN(C(=O)Cc2ccccc2)C1 | > 10000 | > 10000 |  |
| Cc1ccccc1CN1CCn2c1nc(=O)c1c2CCN(CC(C)C)C1 | > 10000 | > 10000 |  |
| Cc1ccccc1CN1CCn2c1nc(=O)c1c2CCN(Cc2cccc(C#N)c2)C1 | 580 | 500 |  |
| Cc1ccc(CN2CCc3c(c(=O)nc4n3CCN4Cc3ccccc3C)C2)cc1 | 640 | 5310 |  |
| CCN1CCc2c(c(=O)nc3n2CCN3Cc2ccccc2C)C1 | > 10000 | > 10000 |  |
| Cc1ccccc1CN1CCn2c1nc(=O)c1c2CCN(Cc2ccc(F)cc2)C1 | 640 | 10000 |  |
| Cc1ccccc1CN1CCn2c1nc(=O)c1c2CCN(Cc2ccncc2)C1 | 1610 | > 10000 |  |
| O=C(c1ccc(F)cc1)C1CCN(CCn2c(=O)[nH]c3ccccc3c2=O)CC1 [KETANSERIN] |  |  | t1/2 [18]: 34 min; t1/2 [16]: 18.5 min; CLint scaled at 1.5 µM [17]: 51.1 mL/min/kg |
| O=c1nc2n(c3c1CN(Cc1ccccc1)CC3)CCN2Cc1ccco1 | 1760 | > 10000 |  |
| O=c1nc2n(c3c1CN(Cc1ccccc1)CC3)CCN2CC1CC1 | 1220 | > 10000 |  |
| Cc1ccccc1CN1CCn2c1nc(=O)c1c2CCN(Cc2cccnc2)C1 | 1640 | > 10000 |  |
| Cc1ccccc1CN1CCn2c1nc(=O)c1c2CCN(Cc2ccc(F)cc2F)C1 | 980 | > 10000 |  |
| Cc1ccccc1CN1CCn2c1nc(=O)c1c2CCN(CC2CCCCC2)C1 | 2410 | > 10000 |  |
| Cc1ccccc1CN1CCn2c1nc(=O)c1c2CCN(c2nncs2)C1 | > 10000 | > 10000 |  |
| Cc1ccccc1CN1CCn2c1nc(=O)c1c2CCN(CCc2ccccc2)C1 | 1090 | 6010 |  |
| Cc1ccccc1CN1CCn2c1nc(=O)c1c2CCN(Cc2ccccc2C#N)C1 | 660 | > 10000 |  |
| CCN1CCn2c1nc(=O)c1c2CCN(Cc2ccccc2)C1 | > 10000 | > 10000 |  |
| Cc1cccc(CN2CCc3c(c(=O)nc4n3CCN4Cc3ccccc3C)C2)c1 | 510 | 1500 |  |
| O=c1nc2n(c3c1CN(Cc1ccccc1)CC3)CCN2c1ccccc1 | 1040 | > 10000 |  |
| Cc1ccccc1CN1CCCn2c1nc(=O)c1c2CCN(Cc2ccccc2)C1 | 3520 | > 10000 |  |
| O=c1nc2n(c3c1CN(Cc1ccccc1)CC3)CCN2Cc1ccncc1 | 1130 | > 10000 |  |
| O=c1nc2n(c3c1CN(Cc1ccccc1)CC3)CCN2Cc1ccc(F)c(Br)c1 |  |  | ΔTm [19]: 20.9 °C; deltaS [20]: -77.4 J/mol.K; deltaH [21]: -14.9 kcal/mol; deltaH (Homo sapiens [22]): -2.73 kcal/mol; deltaS (Homo sapiens [23]): 54.3 J/mol.K; inhibition (HCT-116 [24]): Active |

Continued by falling EC50 [1], values first:

| EC50 [1] [nM] | IC50 (HCT-116 [2]) [nM] | SMILES | also measured |
| --- | --- | --- | --- |
| 500 | 5100 | Cc1ccccc1CN1CCn2c1nc(=O)c1c2C(F)(F)CN(Cc2ccccc2)C1 |  |
| 500 | 1160 | COc1ccc(CN2CCn3c2nc(=O)c2c3CCN(Cc3ccccc3)C2)cc1 |  |
| 450 | 4200 | CC(C)CCN1CCn2c1nc(=O)c1c2CCN(Cc2ccccc2)C1 |  |
| 440 | 290 | O=c1nc2n(c3c1CN(Cc1ccccc1)CC3)CCN2Cc1ccccc1F |  |
| 420 | > 10000 | O=c1nc2n(c3c1CN(Cc1ccccc1)CC3)CCN2CCc1ccccc1 |  |
| 400 | 550 | O=c1nc2n(c3c1CN(Cc1ccccc1)CC3)CCN2Cc1ccc(Br)cc1 |  |
| 390 | 300 | Cc1cccc(CN2CCn3c2nc(=O)c2c3CCN(Cc3ccccc3)C2)c1 |  |
| 360 | 310 | O=c1nc2n(c3c1CN(Cc1ccccc1)CC3)CCN2Cc1ccc2ccccc2c1 |  |
| 360 | 610 | O=c1nc2n(c3c1CN(Cc1ccccc1)CC3)CCN2Cc1cccc(Br)c1 |  |
| 320 | 5000 | Cc1ccccc1CN1CCn2c1nc(=O)c1c2CCN(Cc2ccc(F)c(F)c2)C1 |  |
| 320 | 210 | Cc1ccc(CN2CCn3c2nc(=O)c2c3CCN(Cc3ccccc3)C2)cc1 |  |
| 300 | 100 | O=c1nc2n(c3c1CN(Cc1ccccc1)CC3)CCN2Cc1ccc(F)c(F)c1 | IC50 (HT-29): 50 nM; IC50 (SW-620): 150 nM; IC50 (DLD-1): 150 nM; IC50 (HCT-15): 200 nM; IC50 (SW480): 120 nM |
| 300 | 80 | O=c1nc2n(c3c1CN(Cc1ccccc1)CC3)CCN2Cc1ccc(Cl)cc1 | IC50 (HT-29): 70 nM; IC50 (SW-620): 170 nM; IC50 (DLD-1): 100 nM; IC50 (HCT-15): 250 nM; IC50 (SW480): 100 nM |
| 290 | 320 | O=c1nc2n(c3c1CN(Cc1ccccc1)CC3)CCN2Cc1ccc(C(F)(F)F)cc1 |  |
| 280 | 190 | O=c1nc2n(c3c1CN(Cc1ccccc1)CC3)CCN2Cc1cccc(Cl)c1 |  |
| 260 | 220 | O=c1nc2n(c3c1CN(Cc1ccccc1)CC3)CCN2Cc1cccc(F)c1 |  |
| 210 | 110 | O=c1nc2n(c3c1CN(Cc1ccccc1)CC3)CCN2Cc1ccc(Br)c(F)c1 |  |
| 190 | 310 | O=c1nc2n(c3c1CN(Cc1ccccc1)CC3)CCN2Cc1ccccc1Cl |  |
| 160 | 100 | O=c1nc2n(c3c1CN(Cc1ccccc1)CC3)CCN2Cc1ccc(F)cc1F | IC50 (HT-29): 80 nM; IC50 (SW-620): 90 nM; IC50 (DLD-1): 90 nM; IC50 (HCT-15): 120 nM; IC50 (SW480): 120 nM |
| 130 | 2460 | O=c1nc2n(c3c1CN(Cc1ccccc1)CC3)CCN2CC1CCCCC1 |  |
| 130 | 80 | O=c1nc2n(c3c1CN(Cc1ccccc1)CC3)CCN2Cc1ccc(F)cc1 | IC50 (HT-29): 400 nM; IC50 (SW-620): 190 nM; IC50 (DLD-1): 90 nM; IC50 (HCT-15): 210 nM; IC50 (SW480): 170 nM |
| 120 | 520 | O=c1nc2n(c3c1CN(Cc1ccccc1)CC3)CCN2Cc1ccccc1 |  |
| 110 | 1340 | COc1ccccc1CN1CCn2c1nc(=O)c1c2CCN(Cc2ccccc2)C1 |  |
| 100 | 1200 | COc1cccc(CN2CCn3c2nc(=O)c2c3CCN(Cc3ccccc3)C2)c1 |  |
